Measured values: ChEMBL document CHEMBL1201862, “PubChem BioAssay data set” (2004)
Active and inactive are the calls of the source.

Assays:
HEK293 [1] = assay: SAR analysis of compounds that are cytotoxic to HEK293 - Set 3. [Related pubchem assays (depositor defined):AID1575, AID1578, AID1848, AID1849, AID2001, AID2333, AID2334, AID2335, AID2337, AID2469]; type: functional, cell-based; details: Homo sapiens
HEK293 [2] = assay: SAR analysis of compounds that are cytotoxic to HEK293 - Set 2. [Related pubchem assays (depositor defined):AID1575, AID1578, AID1849, AID2001, AID2333, AID2334, AID2335, AID2337, AID2800]; type: functional, cell-based; details: Homo sapiens
[3] = target: T1, Nucleotide-binding oligomerization domain-containing protein 1 (Homo sapiens, UniProt Q9Y239); assay: SAR analysis of compounds that inhibit NOD1 - Set 3. [Related pubchem assays (depositor defined):AID1566, AID1575, AID1578, AID1849, AID1852, AID2333, AID2335, AID2466]; type: functional
T1 sequence (Q9Y239 whole entry): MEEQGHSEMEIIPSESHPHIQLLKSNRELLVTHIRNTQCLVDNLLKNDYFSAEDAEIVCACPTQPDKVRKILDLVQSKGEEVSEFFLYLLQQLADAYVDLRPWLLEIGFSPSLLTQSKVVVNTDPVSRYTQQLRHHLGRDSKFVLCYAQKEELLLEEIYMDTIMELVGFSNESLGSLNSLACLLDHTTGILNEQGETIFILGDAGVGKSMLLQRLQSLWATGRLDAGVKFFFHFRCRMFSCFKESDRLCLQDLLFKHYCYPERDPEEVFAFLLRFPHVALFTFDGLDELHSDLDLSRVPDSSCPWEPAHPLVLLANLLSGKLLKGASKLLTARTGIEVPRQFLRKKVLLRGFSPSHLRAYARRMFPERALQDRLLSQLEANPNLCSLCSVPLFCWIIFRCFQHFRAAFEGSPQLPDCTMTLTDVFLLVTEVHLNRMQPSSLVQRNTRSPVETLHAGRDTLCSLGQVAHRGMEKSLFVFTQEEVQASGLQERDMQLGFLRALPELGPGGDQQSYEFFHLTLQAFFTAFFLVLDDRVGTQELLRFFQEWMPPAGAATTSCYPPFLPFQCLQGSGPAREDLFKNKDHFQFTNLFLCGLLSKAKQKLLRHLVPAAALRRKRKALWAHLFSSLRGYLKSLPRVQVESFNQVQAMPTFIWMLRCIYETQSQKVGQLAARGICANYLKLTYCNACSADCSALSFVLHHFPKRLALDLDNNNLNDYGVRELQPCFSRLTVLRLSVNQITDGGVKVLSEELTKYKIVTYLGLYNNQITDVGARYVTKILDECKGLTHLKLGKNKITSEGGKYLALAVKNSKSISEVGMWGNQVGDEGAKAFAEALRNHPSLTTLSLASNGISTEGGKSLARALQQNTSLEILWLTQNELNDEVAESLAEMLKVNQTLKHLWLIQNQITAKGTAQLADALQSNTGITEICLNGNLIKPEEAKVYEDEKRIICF

[4] = target: T1, Nucleotide-binding oligomerization domain-containing protein 1; assay: SAR analysis of compounds that inhibit NOD1 - Set 2. [Related pubchem assays (depositor defined):AID1566, AID1575, AID1578, AID1849, AID1852, AID2333, AID2335, AID2798]; type: functional
Interleukin-8 [5] = target: T2, Interleukin-8 (Homo sapiens, UniProt P10145); assay: SAR analysis of GM-Tri-DAP induced IL-8 secretion in MCF-7/NOD1 cells - Set 2. [Related pubchem assays (depositor defined):AID1575, AID1578, AID2333]; type: functional, cell-based
T2 sequence (P10145 whole entry): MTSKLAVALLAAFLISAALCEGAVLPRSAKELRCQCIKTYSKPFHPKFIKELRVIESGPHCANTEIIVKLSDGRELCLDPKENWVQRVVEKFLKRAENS

Interleukin-8 [6] = target: T2, Interleukin-8; assay: SAR analysis of Tumor necrosis factor alpha (TNF-alpha) induced IL-8 secretion in MCF-7/NOD1 cells - Set 2. [Related pubchem assays (depositor defined):AID1575, AID2250, AID2260]; type: functional, cell-based
[7] = target: Nucleotide-binding oligomerization domain-containing protein 2 (Homo sapiens, UniProt Q9HC29); assay: inhibition of NOD2 signaling – set 2, SAR follow-up (AID 2475); type: functional
[8] = target: T1, Nucleotide-binding oligomerization domain-containing protein 1; assay: SAR analysis of NF-kappaB dependent luciferase using DAP as an inducer - Set 2. [Related pubchem assays (depositor defined):AID1566, AID1575, AID1578, AID1579, AID1849, AID1852, AID2264]; type: functional
[9] = target: T3, Short transient receptor potential channel 4 (Mus musculus, UniProt Q9QUQ5); assay: block of DAMGO-driven TRPC4 calcium entry – cell-based, HEK293 TRPC4/mu-opioid, Fluo-4 calcium, dose response (AID 434942); type: functional;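 also: potency of inhibitors blocking the TRPC4 calcium response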
T3 sequence (Q9QUQ5 whole entry): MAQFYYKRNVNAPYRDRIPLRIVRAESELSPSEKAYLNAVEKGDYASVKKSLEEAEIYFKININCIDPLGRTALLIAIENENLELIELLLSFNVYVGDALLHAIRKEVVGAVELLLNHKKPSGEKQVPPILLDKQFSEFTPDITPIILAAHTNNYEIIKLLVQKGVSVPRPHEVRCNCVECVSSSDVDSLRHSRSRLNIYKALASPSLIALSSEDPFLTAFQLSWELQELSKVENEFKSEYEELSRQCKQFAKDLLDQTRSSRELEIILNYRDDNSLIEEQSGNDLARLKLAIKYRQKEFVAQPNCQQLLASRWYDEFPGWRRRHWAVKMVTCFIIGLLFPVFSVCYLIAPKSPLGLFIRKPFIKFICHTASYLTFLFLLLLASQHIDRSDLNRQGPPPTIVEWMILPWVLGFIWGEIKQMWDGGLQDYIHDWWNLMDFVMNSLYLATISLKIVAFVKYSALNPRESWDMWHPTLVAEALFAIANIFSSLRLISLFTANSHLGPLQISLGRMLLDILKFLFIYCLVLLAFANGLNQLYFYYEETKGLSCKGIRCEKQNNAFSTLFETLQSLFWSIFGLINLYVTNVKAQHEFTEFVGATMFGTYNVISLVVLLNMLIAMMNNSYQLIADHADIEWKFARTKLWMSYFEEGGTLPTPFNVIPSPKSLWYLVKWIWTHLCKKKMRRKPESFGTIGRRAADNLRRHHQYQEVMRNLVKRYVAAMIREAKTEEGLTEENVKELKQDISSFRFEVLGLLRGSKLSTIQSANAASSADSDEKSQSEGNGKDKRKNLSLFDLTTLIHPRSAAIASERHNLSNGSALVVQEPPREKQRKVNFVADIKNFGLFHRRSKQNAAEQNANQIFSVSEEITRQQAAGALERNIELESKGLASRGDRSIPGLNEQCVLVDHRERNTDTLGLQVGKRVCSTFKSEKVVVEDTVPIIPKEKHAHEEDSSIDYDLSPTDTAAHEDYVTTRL

[10] = target: Phosphoethanolamine/phosphocholine phosphatase (Homo sapiens, UniProt Q8TCT1); assay: SAR assay for compounds that inhibit PHOSPHO1. [Related pubchem assays (depositor defined):AID1545, AID1565, AID1574]
Sequence of Phosphoethanolamine/phosphocholine phosphatase (Q8TCT1 whole entry): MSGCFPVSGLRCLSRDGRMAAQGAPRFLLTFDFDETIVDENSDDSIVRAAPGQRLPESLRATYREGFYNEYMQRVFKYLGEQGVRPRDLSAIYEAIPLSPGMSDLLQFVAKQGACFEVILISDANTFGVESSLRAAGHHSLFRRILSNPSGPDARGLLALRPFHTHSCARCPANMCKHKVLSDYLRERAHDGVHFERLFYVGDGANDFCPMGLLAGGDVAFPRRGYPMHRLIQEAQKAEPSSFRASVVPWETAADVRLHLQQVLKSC

Sequence of Nucleotide-binding oligomerization domain-containing protein 2 (Q9HC29 whole entry, the tested form may be a part): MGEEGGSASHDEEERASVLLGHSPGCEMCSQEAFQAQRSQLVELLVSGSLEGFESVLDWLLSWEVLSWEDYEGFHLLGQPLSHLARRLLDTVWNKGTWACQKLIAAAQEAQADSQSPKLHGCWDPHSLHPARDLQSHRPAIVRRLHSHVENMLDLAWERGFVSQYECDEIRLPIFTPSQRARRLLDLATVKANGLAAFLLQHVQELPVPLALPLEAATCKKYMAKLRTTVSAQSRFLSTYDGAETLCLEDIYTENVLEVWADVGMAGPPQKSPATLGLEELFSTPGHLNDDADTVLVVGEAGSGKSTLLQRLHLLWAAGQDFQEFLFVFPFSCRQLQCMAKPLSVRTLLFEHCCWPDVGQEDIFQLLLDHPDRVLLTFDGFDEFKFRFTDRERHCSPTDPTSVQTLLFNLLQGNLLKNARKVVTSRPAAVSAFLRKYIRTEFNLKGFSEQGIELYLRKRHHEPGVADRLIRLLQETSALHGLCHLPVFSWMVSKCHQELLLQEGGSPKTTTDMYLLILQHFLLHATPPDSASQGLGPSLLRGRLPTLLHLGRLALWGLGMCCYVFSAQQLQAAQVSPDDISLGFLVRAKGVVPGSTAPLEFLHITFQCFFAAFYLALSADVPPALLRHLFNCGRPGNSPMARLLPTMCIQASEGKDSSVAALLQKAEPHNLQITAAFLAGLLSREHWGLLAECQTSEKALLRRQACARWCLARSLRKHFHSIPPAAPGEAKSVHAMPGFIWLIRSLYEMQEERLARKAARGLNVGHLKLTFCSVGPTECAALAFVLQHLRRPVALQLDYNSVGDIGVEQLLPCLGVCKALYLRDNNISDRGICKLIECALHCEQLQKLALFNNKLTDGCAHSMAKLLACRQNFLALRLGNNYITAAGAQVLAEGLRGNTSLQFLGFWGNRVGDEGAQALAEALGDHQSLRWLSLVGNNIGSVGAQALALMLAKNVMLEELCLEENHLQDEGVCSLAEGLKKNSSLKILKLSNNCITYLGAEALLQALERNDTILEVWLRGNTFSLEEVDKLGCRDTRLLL

CCCCn1c(SCC(=O)Nc2nnc(CC)s2)nc2c1c(=O)n(C)c(=O)n2C
IC50 (HEK293 [1]): > 20 µM (inactive) | IC50 (HEK293 [2]): > 20 µM (inactive) | IC50 [3]: 9.39 µM (active) | IC50 [4]: 7.92 µM (active) | IC50 (Interleukin-8 [5]): > 25 µM (inactive) | IC50 (Interleukin-8 [6]): > 25 µM (inactive) | IC50 [7]: 7.19 µM (active) | IC50 [8]: > 25 µM (inactive)

CCOC(=O)C1(Cc2cccc(OC)c2)CCN(Cc2cccc(O)c2)CC1
EC50 [9]: 9.44 µM (active)

c1ccc(CNc2nc(-c3ccccc3)[n+](-c3ccccc3)s2)cc1
IC50 [10]: 2.59 µM (inactive)
